Assay results taken from patent US6921767B2, “Cycloalkyl alkanoic acids as integrin receptor antagonists derivatives” (Pharmacia Corporation, priority 2000, dated 2005).

Assay: IC50 test to confirm desired/undesired isomer (assay not specified)
Details: qualitative outcome only, no number given

## CN1CCNc2nc(CCOc3ccc(C4CC4CC(=O)O)cc3)ccc21 (single isomer, unassigned; (+)) [Example 81, ((+)-2-{4-[2-(1-methyl-1,2,3,4-tetrahydropyrido[2,3-b]pyrazin-^6-yl)ethoxy]phenyl}cyclopropyl)acetic acid]
  tested for IC50 to confirm as desired / undesired compound: desired compound

## CN1CCNc2nc(CCOc3ccc(C4CC4CC(=O)O)cc3)ccc21 (single isomer, unassigned; (-)) [Example 82, ((−)-2-{4-[2-(1-methyl-1,2,3,4-tetrahydropyrido[2,3-b]pyrazin-6-yl)ethoxy]phenyl}cyclopropyl)acetic acid]
  tested for IC50 to confirm as desired / undesired compound: undesired compound

## Cl.O=C(O)CC1C(c2ccc(OCCc3ccc4c(n3)NCCC4)cc2)C1(Cl)Cl (single isomer, unassigned) [Example 85, second peak, (2,2-Dichloro-3-{4-[2-(5,6,7,8-tetrahydro-1,8-naphthyridin-2-yl)ethoxy]phenyl}cyclopropyl)acetic acid hydrochloride]
hydrochloride
  tested for IC50 to confirm as desired / undesired compound: desired compound

## Cl.O=C(O)CC1C(c2ccc(OCCc3ccc4c(n3)NCCC4)cc2)C1(Cl)Cl (single isomer, unassigned) [Example 85, first peak, (2,2-Dichloro-3-{4-[2-(5,6,7,8-tetrahydro-1,8-naphthyridin-2-yl)ethoxy]phenyl}cyclopropyl)acetic acid hydrochloride]
hydrochloride
  tested for IC50 to confirm as desired / undesired compound: undesired isomer
